Experimental data taken from ChEMBL document CHEMBL4130502, “Discovery of thienopyrrolotriazine derivatives to protect mitochondrial function against Aβ-induced neurotoxicity” (Eur J Med Chem, 2017).

How the values were obtained:
[1] = target: Translocator protein (Mus musculus) (UniProt P50637); assay: Inhibition of TSPO in mouse HT22 cells assessed as reduction in amyloid beta (1 to 42) (unknown origin) induced mitochondrial permeability transition pore formation by measuring increase in green to red fluorescence ratio at 5 uM pretreated for 10 mins followed by amyloid beta (1 to 42) stimulation and measured at 1 hr interval for 3 hrs by JC-1 dye based fluorescence assay relative to control; type: cell-based; set-up: scale not given: the % may be the effect or the level left
Chain of Translocator protein (Mus musculus) (P50637 whole entry, looked up): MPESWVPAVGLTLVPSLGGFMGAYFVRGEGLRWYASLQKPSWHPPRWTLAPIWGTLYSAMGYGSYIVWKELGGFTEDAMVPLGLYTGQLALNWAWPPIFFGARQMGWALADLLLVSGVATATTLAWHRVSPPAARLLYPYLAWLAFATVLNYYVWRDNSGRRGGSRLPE

[2] = Cytotoxicity against mouse HT22 cells as cell viability at 5 uM after 24 hrs by MTT assay relative to control; type: cell-based, HT-22; details: read-out: Activity
[3] = target: Translocator protein (Mus musculus) (UniProt P50637); assay: Inhibition of TSPO in mouse HT22 cells assessed as recovery of ATP production at 5 uM preincubated for 10 mins followed by amyloid beta (1 to 42) stimulation and measured after 7 hrs by luciferase based assay relative to control; type: cell-based; set-up: scale not given: the % may be the effect or the level left
CYP1A2 = target: T1, CYP1A2 (Homo sapiens, UniProt P05177); assay: Inhibition of human CYP1A2 assessed as remaining enzyme activity at 10 uM preincubated for 5 mins followed by Vivid CYP substrate addition measured after 20 mins by fluorescence assay relative to control; type: ADME; details: probe Vivid CYP substrate, read-out: Activity
T1 sequence (P05177 whole entry): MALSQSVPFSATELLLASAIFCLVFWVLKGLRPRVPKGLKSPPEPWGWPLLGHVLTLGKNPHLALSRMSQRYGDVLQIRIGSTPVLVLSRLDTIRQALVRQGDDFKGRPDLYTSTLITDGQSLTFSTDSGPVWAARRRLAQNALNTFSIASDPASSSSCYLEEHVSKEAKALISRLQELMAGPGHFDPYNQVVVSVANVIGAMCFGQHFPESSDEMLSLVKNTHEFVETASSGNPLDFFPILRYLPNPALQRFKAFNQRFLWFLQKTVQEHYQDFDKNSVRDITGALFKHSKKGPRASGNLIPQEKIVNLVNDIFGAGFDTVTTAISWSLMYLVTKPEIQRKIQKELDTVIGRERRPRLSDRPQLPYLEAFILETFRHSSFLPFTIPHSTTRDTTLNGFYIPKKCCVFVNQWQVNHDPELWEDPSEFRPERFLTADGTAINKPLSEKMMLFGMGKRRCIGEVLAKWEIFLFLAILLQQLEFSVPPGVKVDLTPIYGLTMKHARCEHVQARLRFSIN

Translocator protein = Translocator protein (Rattus norvegicus, UniProt P16257); assay: Displacement of [3H]PK11195 from TSPO in Sprague-Dawley rat cerebral cortex membranes after 60 mins by liquid scintillation counting analysis; set-up: species or system Membrane
Chain of Translocator protein (P16257 whole entry, looked up): as the sequence (P50637 whole entry, looked up) above, with P2S, E3Q, V67I, D77E, A110V, L113M, V149M, P168T counted along it

CYP2C19 = CYP2C19 (Homo sapiens, UniProt P33261); assay: Inhibition of human CYP2C19 assessed as remaining enzyme activity at 10 uM preincubated for 5 mins followed by Vivid CYP substrate addition measured after 20 mins by fluorescence assay relative to control; type: ADME; details: probe Vivid CYP substrate, read-out: Activity
Chain of CYP2C19 (P33261 whole entry): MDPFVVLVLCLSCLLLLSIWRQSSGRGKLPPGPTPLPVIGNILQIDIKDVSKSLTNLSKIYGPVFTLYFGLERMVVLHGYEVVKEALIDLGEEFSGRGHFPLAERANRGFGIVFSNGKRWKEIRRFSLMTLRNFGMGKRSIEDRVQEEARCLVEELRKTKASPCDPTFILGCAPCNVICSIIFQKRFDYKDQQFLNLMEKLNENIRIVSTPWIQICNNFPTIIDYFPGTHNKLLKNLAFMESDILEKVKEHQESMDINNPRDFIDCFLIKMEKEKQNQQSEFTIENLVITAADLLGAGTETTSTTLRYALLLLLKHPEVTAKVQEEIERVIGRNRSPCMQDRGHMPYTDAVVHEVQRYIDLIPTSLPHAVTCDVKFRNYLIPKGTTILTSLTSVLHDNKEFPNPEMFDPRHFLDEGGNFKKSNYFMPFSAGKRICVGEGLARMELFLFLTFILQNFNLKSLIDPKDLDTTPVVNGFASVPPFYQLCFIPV

CYP3A4 = CYP3A4 (Homo sapiens, UniProt P08684); assay: Inhibition of human CYP3A4 assessed as remaining enzyme activity at 10 uM preincubated for 5 mins followed by Vivid CYP substrate addition measured after 20 mins by fluorescence assay relative to control; type: ADME; details: probe Vivid CYP substrate, read-out: Activity
Chain of CYP3A4 (P08684 whole entry): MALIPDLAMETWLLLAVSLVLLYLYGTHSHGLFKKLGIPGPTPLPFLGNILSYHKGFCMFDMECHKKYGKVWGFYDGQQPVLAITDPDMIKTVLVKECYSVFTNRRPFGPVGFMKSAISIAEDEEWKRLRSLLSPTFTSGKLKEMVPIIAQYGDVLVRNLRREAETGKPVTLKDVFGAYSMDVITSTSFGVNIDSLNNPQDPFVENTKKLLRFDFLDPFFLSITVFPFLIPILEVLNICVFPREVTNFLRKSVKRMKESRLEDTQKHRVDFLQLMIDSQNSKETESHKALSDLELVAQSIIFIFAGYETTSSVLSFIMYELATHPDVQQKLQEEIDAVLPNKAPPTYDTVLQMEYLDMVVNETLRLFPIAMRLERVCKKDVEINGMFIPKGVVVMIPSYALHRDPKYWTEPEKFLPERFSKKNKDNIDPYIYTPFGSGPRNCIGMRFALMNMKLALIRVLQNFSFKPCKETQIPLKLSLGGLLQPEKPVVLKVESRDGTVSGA

CYP2C9 = CYP2C9 (Homo sapiens, UniProt P11712); assay: Inhibition of human CYP2C9 assessed as remaining enzyme activity at 10 uM preincubated for 5 mins followed by Vivid CYP substrate addition measured after 20 mins by fluorescence assay relative to control; type: ADME; details: probe Vivid CYP substrate, read-out: Activity
Chain of CYP2C9 (P11712 whole entry): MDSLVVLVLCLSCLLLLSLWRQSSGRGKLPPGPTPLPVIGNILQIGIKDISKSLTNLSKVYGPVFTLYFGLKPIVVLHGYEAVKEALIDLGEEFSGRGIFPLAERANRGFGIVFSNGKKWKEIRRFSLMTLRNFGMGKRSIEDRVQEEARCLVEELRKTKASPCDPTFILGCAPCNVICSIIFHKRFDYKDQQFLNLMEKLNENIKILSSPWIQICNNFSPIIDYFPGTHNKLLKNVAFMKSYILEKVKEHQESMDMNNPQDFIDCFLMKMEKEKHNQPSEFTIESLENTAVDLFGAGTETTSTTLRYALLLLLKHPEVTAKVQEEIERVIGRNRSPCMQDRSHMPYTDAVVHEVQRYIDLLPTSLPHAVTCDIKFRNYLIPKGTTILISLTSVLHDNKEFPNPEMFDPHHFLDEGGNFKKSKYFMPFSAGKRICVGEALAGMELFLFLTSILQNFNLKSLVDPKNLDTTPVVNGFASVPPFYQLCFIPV

CYP2D6 = CYP2D6 (Homo sapiens, UniProt P10635); assay: Inhibition of human CYP2D6 assessed as remaining enzyme activity at 10 uM preincubated for 5 mins followed by Vivid CYP substrate addition measured after 20 mins by fluorescence assay relative to control; type: ADME; details: probe Vivid CYP substrate, read-out: Activity
Chain of CYP2D6 (P10635 whole entry): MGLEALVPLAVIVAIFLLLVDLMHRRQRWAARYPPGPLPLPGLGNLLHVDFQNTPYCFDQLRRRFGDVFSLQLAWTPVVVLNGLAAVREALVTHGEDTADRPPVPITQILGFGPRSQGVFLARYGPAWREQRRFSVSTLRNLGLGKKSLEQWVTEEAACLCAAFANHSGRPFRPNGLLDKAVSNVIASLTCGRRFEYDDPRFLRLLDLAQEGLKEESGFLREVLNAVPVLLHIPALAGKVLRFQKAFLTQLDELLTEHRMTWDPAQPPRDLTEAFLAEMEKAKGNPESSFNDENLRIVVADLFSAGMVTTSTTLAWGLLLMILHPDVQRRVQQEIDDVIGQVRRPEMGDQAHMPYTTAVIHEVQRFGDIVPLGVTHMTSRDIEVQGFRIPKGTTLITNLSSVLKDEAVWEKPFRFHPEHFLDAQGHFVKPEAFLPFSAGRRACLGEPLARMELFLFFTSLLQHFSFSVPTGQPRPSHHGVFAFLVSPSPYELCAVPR

CCOC(=O)C(C)N1C(=O)CN=C(c2ccc(OC)cc2)c2c1sc1c2CCCC1 (stereo unspecified)
Activity [1]: 24%

C=CCN1C(=O)CN=C(c2ccccc2)c2c1sc(C)c2C
viability at 24 h, 5 µM [2]: 93% | Activity [1]: 75% | Activity [3]: -2%

CN1C(=O)CN=C(c2ccc(Cl)cc2)c2cc(Cl)ccc21 [RO-54864]
viability at 24 h, 5 µM [2]: 100% | Activity [1]: 12% | Activity [3]: 9%

CN1C(=O)CN=C(c2ccccc2)c2cc(Br)ccc21
Activity [1]: 0%

CCN(C(=O)CCl)c1ncc(-c2ccc(OC)cc2)s1
Activity [1]: 0%

CCc1nn(CC(=O)N(C)c2ccccc2)c(=O)c2cc3sccc3n12
viability at 24 h, 5 µM [2]: 93% | Activity [1]: 50% | Activity [3]: -9%

Cc1cc2c(cc3c(=O)n(CC(=O)N(C)c4ccccc4)nc(C)n32)s1
viability at 24 h, 5 µM [2]: 100% | Activity [1]: 41% | Activity [3]: 17%

CCc1nnc(SCC(=O)N2CCN(c3ccccc3)CC2)c2cc3sccc3n12
viability at 24 h, 5 µM [2]: 68% | Activity [1]: 53% | Activity [3]: -4%

CCc1nnc(SCC(=O)NCc2ccccc2)c2cc3sc(C)cc3n12
viability at 24 h, 5 µM [2]: 29% | Activity [1]: 55% | Activity [3]: -3%

Cc1ccc2c(c1)C(c1ccccc1)=NCC(=O)N2C
Activity [1]: 1%

COC(=O)CN(c1ccc(C(C)C)cc1)S(=O)(=O)c1ccc(C)cc1
viability at 24 h, 5 µM [2]: 92% | Activity [1]: 67% | Activity [3]: -1%

Cc1noc(C)c1S(=O)(=O)NC(c1ccccc1)c1ccccc1
Activity [1]: 0%

C=CCN1C(=O)CN=C(c2ccc(C(C)(C)C)cc2)c2c1sc1c2CCCC1
Activity [1]: 14%

O=S(=O)(c1ccccc1Cl)N1CCCC1c1cccs1 (stereo unspecified)
viability at 24 h, 5 µM [2]: 114% | Activity [1]: 67% | Activity [3]: -61%

COC(=O)CN1C(=O)C2CCCCC2Sc2ncccc21 (stereo unspecified)
Activity [1]: 0%

C=CCN1C(=O)CN=C(c2cccs2)c2c1sc1c2CCC1
Activity [1]: 38%

Cn1c(=O)oc2cc(NS(=O)(=O)Cc3ccco3)ccc21
viability at 24 h, 5 µM [2]: 103% | Activity [1]: 41% | Activity [3]: 14%

CCc1nn(CC(=O)N(C)C)c(=O)c2cc3sccc3n12
viability at 24 h, 5 µM [2]: 98% | Activity [1]: 12% | Activity [3]: -3%

Cc1nnc(SCC(=O)NCc2ccccc2)c2cc3sccc3n12
viability at 24 h, 5 µM [2]: 73% | Activity [1]: 48% | Activity [3]: 6%

Cn1c(SCC(=O)NCc2ccccc2)nnc1-c1cc2ccccc2o1
Activity [1]: 19%

CCc1nnc(SCC(=O)N2CCN(c3ccccc3)CC2)c2cc3sc(C)cc3n12
viability at 24 h, 5 µM [2]: 99% | activity at 20 min, 10 µM (CYP1A2): 40.1% | IC50 (Translocator protein): 2.22 µM | activity at 20 min, 10 µM (CYP2C19): 20.3% | Activity [1]: 70% | Activity [3]: 41% | activity at 20 min, 10 µM (CYP3A4): 20.6% | activity at 20 min, 10 µM (CYP2C9): 38.8% | activity at 20 min, 10 µM (CYP2D6): 81.7%

CCN(Cc1ccccc1)C(=O)Cn1nc(C)n2c(cc3sc(C)cc32)c1=O
viability at 24 h, 5 µM [2]: 90% | Activity [1]: 45% | Activity [3]: 9%

CCN(Cc1ccccc1)C(=O)CSc1nnc(C)n2c1cc1sc(C)cc12
viability at 24 h, 5 µM [2]: 97% | activity at 20 min, 10 µM (CYP1A2): 70.9% | IC50 (Translocator protein): 0.123 µM | activity at 20 min, 10 µM (CYP2C19): 10.2% | Activity [1]: 66% | Activity [3]: 26% | activity at 20 min, 10 µM (CYP3A4): 51.4% | activity at 20 min, 10 µM (CYP2C9): 21.1% | activity at 20 min, 10 µM (CYP2D6): 38.4%

C=CCN1C(=O)CN=C(c2ccccc2C)c2cc(CC)sc21
Activity [1]: 0%

O=C(COc1ccc(Cl)cc1)ON=C(c1ccccc1)c1ccccc1
Activity [1]: 0%

Cc1cc2c(cc3c(SCC(=O)N4CCN(c5ccccc5)CC4)nnc(C)n32)s1
viability at 24 h, 5 µM [2]: 99% | Activity [1]: 69% | Activity [3]: -9%

CCc1nn(CC(=O)N(CC)Cc2ccccc2)c(=O)c2cc3sccc3n12
viability at 24 h, 5 µM [2]: 100% | Activity [1]: 57% | Activity [3]: -11%

Cc1nnc(SCC(=O)N2CCN(c3ccccc3)CC2)c2cc3sccc3n12
viability at 24 h, 5 µM [2]: 98% | Activity [1]: 59% | Activity [3]: 0%

CCc1nnc(SCC(=O)N(CC)Cc2ccccc2)c2cc3sccc3n12
viability at 24 h, 5 µM [2]: 99% | Activity [1]: 56% | Activity [3]: 1%

Cc1nnc(SCC(=O)Nc2ccccc2)c2cc3sccc3n12
viability at 24 h, 5 µM [2]: 96% | Activity [1]: 59% | Activity [3]: 5%

COc1ccc(NC(=O)Cn2nc(C)n3c(cc4sc(C)cc43)c2=O)cc1OC
viability at 24 h, 5 µM [2]: 97% | Activity [1]: 52% | Activity [3]: -8%

Cc1cc2c(cc3c(=O)n(CC(=O)N(C)C)nc(C)n32)s1
viability at 24 h, 5 µM [2]: 96% | Activity [1]: 17% | Activity [3]: 0%

CCc1nn(CC(=O)N2CCN(c3ccccc3)CC2)c(=O)c2cc3sccc3n12
viability at 24 h, 5 µM [2]: 91% | Activity [1]: 56% | Activity [3]: 9%

CCc1nn(CC(=O)Nc2ccc(OC)c(OC)c2)c(=O)c2cc3sccc3n12
viability at 24 h, 5 µM [2]: 40% | Activity [1]: 56% | Activity [3]: -17%

CCc1nnc(SCC(=O)Nc2ccccc2)c2cc3sc(C)cc3n12
viability at 24 h, 5 µM [2]: 92% | activity at 20 min, 10 µM (CYP1A2): 49.2% | IC50 (Translocator protein): 1.67 µM | activity at 20 min, 10 µM (CYP2C19): 44.1% | Activity [1]: 61% | Activity [3]: 22% | activity at 20 min, 10 µM (CYP3A4): 34.1% | activity at 20 min, 10 µM (CYP2C9): 95.9% | activity at 20 min, 10 µM (CYP2D6): 17%

CCc1nnc(SCC(=O)Nc2ccccc2)c2cc3sc(Cl)cc3n12
viability at 24 h, 5 µM [2]: 95% | Activity [1]: 66% | Activity [3]: 4%

COc1ccc(NC(=O)CSc2nnc(C)n3c2cc2sccc23)cc1OC
viability at 24 h, 5 µM [2]: 99% | Activity [1]: 55% | Activity [3]: 0%

CCc1nnc(SCC(=O)N(CC)Cc2ccccc2)c2cc3sc(C)cc3n12
viability at 24 h, 5 µM [2]: 82% | Activity [1]: 67% | Activity [3]: 25%

CCc1nnc(SCC(=O)Nc2ccccc2)c2cc3sccc3n12
viability at 24 h, 5 µM [2]: 91% | Activity [1]: 48% | Activity [3]: -3%

O=C(Cc1coc2ccc3ccccc3c12)NCc1ccco1
viability at 24 h, 5 µM [2]: 96% | Activity [1]: 85% | Activity [3]: -3%

COc1ccccc1C1NC(=S)NC(C)=C1C(=O)OCc1ccccc1 (stereo unspecified)
viability at 24 h, 5 µM [2]: 88% | Activity [1]: 56% | Activity [3]: 0%

COC(=O)C1CCc2ccccc2N1C(=O)c1ccc(OC)cc1 (stereo unspecified)
Activity [1]: 38%

CCc1nnc(SCC(=O)Nc2ccc(OC)c(OC)c2)c2cc3sc(Cl)cc3n12
viability at 24 h, 5 µM [2]: 94% | Activity [1]: 69% | Activity [3]: 7%

Cc1cc2c(cc3c(SCC(=O)Nc4ccccc4)nnc(C)n32)s1
viability at 24 h, 5 µM [2]: 88% | Activity [1]: 58% | Activity [3]: 19%

CCOC(=O)C1=C(C)N/C(=C/c2ccccc2OCc2ccccc2)C1=O
Activity [1]: 22%

CCc1nnc(SCC(=O)N2CCN(c3ccccc3)CC2)c2cc3sc(Cl)cc3n12
viability at 24 h, 5 µM [2]: 99% | Activity [1]: 50% | Activity [3]: -2%

CCc1nnc(SCC(=O)NCc2ccccc2)c2cc3sccc3n12
viability at 24 h, 5 µM [2]: 54% | Activity [1]: 50% | Activity [3]: -15%

Cc1cc2c(cc3c(SCC(=O)N(C)c4ccccc4)nnc(C)n32)s1
viability at 24 h, 5 µM [2]: 87% | Activity [1]: 56% | Activity [3]: 33%

COc1cc(-c2nnc(SCc3c(F)cccc3Cl)o2)cc(OC)c1OC
viability at 24 h, 5 µM [2]: 94% | Activity [1]: 65% | Activity [3]: -3%

Cc1ccc(S(=O)(=O)NCc2cccnc2)c(C)c1
Activity [1]: 0%

Cc1cc2c(cc3c(SCC(=O)NCc4ccccc4)nnc(C)n32)s1
viability at 24 h, 5 µM [2]: 61% | Activity [1]: 35% | Activity [3]: -50%

CCc1nnc(SCC(=O)Nc2ccc(OC)c(OC)c2)c2cc3sccc3n12
viability at 24 h, 5 µM [2]: 82% | Activity [1]: 56% | Activity [3]: 14%

Cc1ccc(S(=O)(=O)Nc2ccc3c(c2)sc(=O)n3C)c(C)c1
Activity [1]: 4%

CCc1nnc(SCC(=O)N(C)c2ccccc2)c2cc3sc(Cl)cc3n12
viability at 24 h, 5 µM [2]: 78% | Activity [1]: 61% | Activity [3]: 22%

CCOC(=O)C(C)N1C(=O)CN=C(c2cccc(C)c2)c2c1sc1c2CCCC1 (stereo unspecified)
Activity [1]: 0%

CCCC(=O)n1nc(-c2ccco2)nc1S(=O)(=O)Cc1ccccc1
Activity [1]: 0%

CNC(=O)CN(c1ccc(Br)cc1)S(=O)(=O)c1ccc(C)cc1
Activity [1]: 35%

CCN(Cc1ccccc1)C(=O)CSc1nnc(C)n2c1cc1sccc12
viability at 24 h, 5 µM [2]: 99% | Activity [1]: 63% | Activity [3]: 8%
